Where “and” joins values, the source holds several entries; their conditions need not be identical. Equal entries are not always repeated. Non-standard residues stand in square brackets, D forms with d. No end group written: not given here. DAP = diaminopimelic acid
Tested on: MDCK cells
Type: cell-based, canine
Conditions: MDCK monolayers, modified Hill equation fit; listed as SEQ ID NO. 27; read-out: half maximal effect on Isc (EC50 / K1/2)
Text: Cell culture: MDCK cells were a generous gift of Dr. Lawrence Sullivan (Kansas University Medical Center, Kansas City, Kans.). T84 cells were obtained from Dr. Daniel Devor (University of Pittsburgh, Pittsburgh, Pa.). MDCK and T84 cells were maintained with similar culture procedures. The culture medium was a 1:1 mixture of DMEM and Ham's F-12 (Gibco BRL, Grand Island, N.Y.) supplemented with 5% heat inactivated fetal bovine serum (BioWhittaker, Walkersville, Md.), and 1% penicillin and streptomycin (Gibco BRL). Cells were grown in plastic culture flasks in a humidified environment with 5% CO2 at 37° C. and passaged every 5-7 days. For Ussing chamber experiments, cells were plated on 1.13 cm^2 permeable supports (Snapwell™, Costar®, Cambridge, Mass.) at a density of approximately 1×10^6 cells/well and incubated in DMEM/F-12 supplemented with FBS and antibiotics (changed every other day) for 2-3 weeks prior to being mounted in modified Ussing flux chambers.
To form monolayers, the cells were plated onto the upper surface of a permeable membrane that forms the bottom of a plastic well. Two types were used. One was the Transwell™ insert (Costar®, Cambridge, Mass.) supported in a six-well tissue culture plate and the other type was the Snapwell™ (Costar®, Cambridge, Mass.). During incubation, the medium was replaced at 48-72 hour intervals. Confluent monolayers formed within 72 hours. Experiments were performed on the monolayers 6-9 days after the initial plating. Net fluid secretion responses were optimal after six days.
Solutions: Ringer solution was made fresh daily. The final concentration (in mM) was 120 NaCl, 25 NaHCO3 3.3 KH2HPO4, 0.8 K2HPO4, 1.2 MgCl2, 1.2 CaCl2, (290±2 mOsmol). All components of the Ringer solution were from Sigma (St. Louis, Mo.).
(§1) Epithelial electrical measurements: Transepithelial ion transport was evaluated in a modified Ussing chamber (Model DCV9, Navicyte, San Diego, Calif.). The Ussing chamber's fluid resistance compensation was completed in Ringer solution (see below). For electrical measurements cell monolayers were bathed in Ringer solution maintained at 37° C. and continuously bubbled with 5% CO2:95% O2. The transepithelial membrane potential (Vte) was clamped to zero and the transepithelial short circuit current (Isc), an indicator of net ion transport, was measured continuously with a voltage clamp apparatus (Model 558C, University of Iowa, Department of Bioengineering, Iowa City, Iowa). Data were digitally acquired at 1 Hz with a Macintosh computer (Apple Computer, Cuppertino, Calif.) using Aqknowledge software (ver. 3.2.6, BIOPAC Systems, Santa Barbara, Calif.) with an MP100A-CE interface.
as §1, with “Transepithelial” for “Epithelial electrical measurements: Transepithelial”, “(composition (in mM) was 120 NaCl, 25 NaHCO3 3.3 KH2HPO4, 0.8 K2HPO4, 1.2 MgCl2, 1.2 CaCl2).” for “(see below).”
MDCK cell monolayers (in the presence of 1-EBIO to maximize basolateral membrane K^+ conductance) were exposed on the apical aspect to escelating peptide concentrations. Maximal change in Isc (relative to the Isc prior to peptide exposure) was recorded following each increment in apical peptide concentration. […]

Compound | EC50
KKKKAARVGLGITTVLVTTIGLGVRAA [SEQ ID No. 27, KKKKAARVGL GITTVLVTTI GLGVRAA] | 50 µM and ~40 µM

Same assay, conditions: MDCK monolayers, modified Hill equation fit; read-out: half maximal effect on Isc (EC50 / K1/2)

Compound | EC50 [µM]
KKKKAARVGLGITTVLVTTIGLGVRAA [SEQ ID No. 27, KKKKAARVGL GITTVLVTTI GLGVRAA] | 40

Same assay, conditions: MDCK pretreatment, basal conditions

Compound | effect on ISC or gTE
CCn1c(=O)[nH]c2ccccc21 [1-EBIO, reference compound] | no effect

Same assay, conditions: peptide at 100 μM

Compound | Activity profile in MDCK cells [at 100 μM μA/cm2]
KKKKAARVGLGITTVVTTIGLGVRAA (KKKKAARVGLGITTVVTTIGLGVRAA; Modified Homo sapiens) [SEQ ID No. 28] | 17.3

Same assay, conditions: peptide at 250 μM

Compound | Activity profile in MDCK cells [at 250 μM μA/cm2]
KKKKPARVGLGITTVLAARVGLGITTV (KKKKPARVGLGITTVLAARVGLGITTV; Modified Homo sapiens) [SEQ ID No. 21] | 8.0

Same assay, conditions: peptide at 300 μM

Compound | Activity profile in MDCK cells [at 300 μM μA/cm2]
KKKKARSGSSQTTMTLVTTIGLGVRAA (KKKKARSGSSQTTMTLVTTIGLGVRAA; Modified Homo sapiens) [SEQ ID No. 4] | 18.7

Same assay, conditions: peptide at 500 μM

Compound | Activity profile in MDCK cells [at 500 μM μA/cm2]
AARVGLGITT V (AARVGLGITTV; Modified Homo sapiens) [SEQ ID No. 52] | <1.0
ARSGSSQTTM T (ARSGSSQTTMT; Modified Homo sapiens) [SEQ ID No. 51] | <1.0
ARSGSSQTTMTLVTTIGLGVRAPKKKK (ARSGSSQTTMTLVTTIGLGVRAPKKKK; Modified Homo sapiens) [SEQ ID No. 17] | 3.6
GITTVLTMTTQSSGSRAKKKK (GITTVLTMTTQSSGSRAKKKK; Modified Homo sapiens) [SEQ ID No. 44] | <1.0
GLGITTVLTMTTQSSGSRAKKKK (GLGITTVLTMTTQSSGSRAKKKK; Modified Homo sapiens) [SEQ ID No. 42] | 3.3
ITTVLTMTTQ SSGSRAKKKK (ITTVLTMTTQSSGSRAKKKK; Modified Homo sapiens) [SEQ ID No. 45] | <1.0
KKKKARSGSSQTTMTLARSGSSQTTMT (KKKKARSGSSQTTMTLARSGSSQTTMT; Modified Homo sapiens) [SEQ ID No. 25] | <1.0
KKKKARSGSSQTTMTLTMTTQSSGSRA (KKKKARSGSSQTTMTLTMTTQSSGSRA; Modified Homo sapiens) [SEQ ID No. 23] | 4.2
KKKKPARVGL GITTVL (KKKKPARVGLGITTVL; Modified Homo sapiens) [SEQ ID No. 40] | 1.5
KKKKPARVGLGITTVLPARVGLGITTV (KKKKPARVGLGITTVLPARVGLGITTV; Modified Homo sapiens) [SEQ ID No. 20] | <1.0
KKKKPARVGL GITTVLT (KKKKPARVGLGITTVLT; Modified Homo sapiens) [SEQ ID No. 39] | 1.8
KKKKPARVGL GITTVLTM (KKKKPARVGLGITTVLTM; Modified Homo sapiens) [SEQ ID No. 38] | 6.8
KKKKPARVGL GITTVLTMT (KKKKPARVGLGITTVLTMT; Modified Homo sapiens) [SEQ ID No. 37] | 8.7
KKKKPARVGL GITTVLTMTT (KKKKPARVGLGITTVLTMTT; Modified Homo sapiens) [SEQ ID No. 36] | 8.8
KKKKPARVGLGITTVLTMTTQ (KKKKPARVGLGITTVLTMTTQ; Modified Homo sapiens) [SEQ ID No. 35] | 13.1
KKKKPARVGLGITTVLTMTTQR (KKKKPARVGLGITTVLTMTTQR; Modified Homo sapiens) [SEQ ID No. 14] | 20.0
KKKKPARVGLGITTVLTMTTQS (KKKKPARVGLGITTVLTMTTQS; Modified Homo sapiens) [SEQ ID No. 34] | 20.3
KKKKPARVGLGITTVLTMTTQSSGS (KKKKPARVGLGITTVLTMTTQSSGS; Modified Homo sapiens) [SEQ ID No. 33] | 18.4

Compound | Activity profile in MDCK cells [at 500 μM μA/cm2]
KKKKPARVGLGITTVLTMTTQSSGSRAKKKK (KKKKPARVGLGITTVLTMTTQSSGSRAKKKK; Modified Homo sapiens) [SEQ ID No. 47] | 5.0
KKKKPARVGLGITTVLTMTTRS (KKKKPARVGLGITTVLTMTTRS; Modified Homo sapiens) [SEQ ID No. 13] | 24.0
KKKKPARVGL GITTVLTRTT (DAP)S (KKKKPARVGLGITTVLTRTT[DAP]S) [SEQ ID No. 32] | 24.0
KKKKPARVGLGITTVLTRTTQS (KKKKPARVGLGITTVLTRTTQS; Modified Homo sapiens) [SEQ ID No. 15] | <1.0
KKKKPARVGLGITTVWTMTTQSSGSRA (KKKKPARVGLGITTVWTMTTQSSGSRA; Modified Homo sapiens) [SEQ ID No. 10] | 20.0
KKKKTMTTQSSGSRALARSGSSQTTMT (KKKKTMTTQSSGSRALARSGSSQTTMT; Modified Homo sapiens) [SEQ ID No. 24] | <1.0
KKKKTMTTQSSGSRALTMTTQSSGSRA (KKKKTMTTQSSGSRALTMTTQSSGSRA; Modified Homo sapiens) [SEQ ID No. 6] | <1.0
KKKKTMTTQSSGSRALVTTIGLGVRAA (KKKKTMTTQSSGSRALVTTIGLGVRAA; Modified Homo sapiens) [SEQ ID No. 7] | <1.0
KKKKVTTIGLGVRAPLARSGSSQTTMT [SEQ ID No. 8] | <1.0
KKKKVTTIGLGVRAPLPARVGLGITTV (KKKKVTTIGLGVRAPLPARVGLGITTV; Modified Homo sapiens) [SEQ ID No. 22] | <1.0
LGITTVLTMTTQSSGSRAKKKK (LGITTVLTMTTQSSGSRAKKKK; Modified Homo sapiens) [SEQ ID No. 43] | <1.0
LTMTTQSSGS RAKKKK (LTMTTQSSGSRAKKKK; Modified Homo sapiens) [SEQ ID No. 46] | <1.0
PARVGLGITT V (PARVGLGITTV; Modified Homo sapiens) [SEQ ID No. 48] | <1.0
RVGLGITTVLTMTTQSSGSRAKKKK (RVGLGITTVLTMTTQSSGSRAKKKK; Modified Homo sapiens) [SEQ ID No. 41] | 6.3
TMTTQSSGSR A (TMTTQSSGSRA; Modified Homo sapiens) [SEQ ID No. 49] | <1.0
VTTIGLGVRA A (VTTIGLGVRAA; Modified Homo sapiens) [SEQ ID No. 53] | <1.0
VTTIGLGVRA P (VTTIGLGVRAP; Modified Homo sapiens) [SEQ ID No. 50] | <1.0
